These results are taken from ChEMBL document CHEMBL1137019, “Maintenance of therapeutic concentrations of caspofungin after temporary treatment interruption (48 hours) in a child with invasive aspergillosis” (Antimicrob Agents Chemother, 2007).

A short description of data set [1]: Trough plasma concentration in child with invasive aspergillosis at 30 mg/day for 5 days measured on last day of therapy. The data set is classed as ADME, organism-based. As to conditions: human, read-out: Cmin.
Data set [2] can be described thus: Peak plasma concentration in child with invasive aspergillosis at 30 mg/day for 5 days measured on last day of therapy. The class given is ADME, organism-based. More on the design: dose 30 mg/day. As to conditions: human.
Data set [3] deals with Homo sapiens. Kind of data set: Trough plasma concentration in child with invasive aspergillosis administered at 30 mg/day schedule for 5 days followed by 48 hrs temporary treatment interruption measured on first day of resumption of therapy. As to conditions: in vivo. The class given is ADME, organism-based.
The next data set deals with Aspergillus fumigatus. Kind of data set: Antifungal activity against Aspergillus fumigatus. The data set is classed as functional.
For data set [4], the system named is Homo sapiens. Kind of data set: Plasma concentration in human at 5 to 100 mg, iv. The data set is classed as ADME, organism-based. As to conditions: in vivo.
Data set [5] is described as follows: Peak plasma concentration in child with invasive aspergillosis administered at 30 mg/day schedule for 5 days followed by 48 hrs temporary treatment interruption measured on first day of resumption of therapy. The class given is ADME, organism-based. Also noted: dose 30 mg/day. As to conditions: human.

In brackets after ≈: the same amount, converted by molar mass.

As to `CC[C@H](C)C[C@H](C)CCCCCCCCC(=O)N[C@H]1C[C@@H](O)[C@@H](NCCN)NC(=O)[C@@H]2[C@@H](O)CCN2C(=O)[C@H]([C@H](O)CCN)NC(=O)[C@H]([C@H](O)[C@@H](O)c2ccc(O)cc2)NC(=O)[C@@H]2C[C@@H](O)CN2C(=O)[C@H]([C@@H](C)O)NC1=O` [CASPOFUNGIN], the concentration at 120 h in data set [1] is 6.7 µg/mL. In addition, the highest concentration (Cmax) in data set [2] is 11.5 µg/mL; in data set [5] it was 5.6 µg/mL. The Cmin with Homo sapiens [3] stood at 1.9 µg/mL. In the data set on Aspergillus fumigatus, this molecule displayed a minimal inhibitory concentration (MIC) of 0.5 mg/L (≈ 0.457 µM). This molecule also registered a Cp in the data set on Homo sapiens [4] of 1 µg/mL.
